The target of assay [1] is T1, recombinant USP1 protein (Homo sapiens, UniProt O94782, DEL125-138/DEL229-408/DEL608-737).
T1 sequence (O94782 with tags, fused parts or gaps DEL125-138/DEL229-408/DEL608-737): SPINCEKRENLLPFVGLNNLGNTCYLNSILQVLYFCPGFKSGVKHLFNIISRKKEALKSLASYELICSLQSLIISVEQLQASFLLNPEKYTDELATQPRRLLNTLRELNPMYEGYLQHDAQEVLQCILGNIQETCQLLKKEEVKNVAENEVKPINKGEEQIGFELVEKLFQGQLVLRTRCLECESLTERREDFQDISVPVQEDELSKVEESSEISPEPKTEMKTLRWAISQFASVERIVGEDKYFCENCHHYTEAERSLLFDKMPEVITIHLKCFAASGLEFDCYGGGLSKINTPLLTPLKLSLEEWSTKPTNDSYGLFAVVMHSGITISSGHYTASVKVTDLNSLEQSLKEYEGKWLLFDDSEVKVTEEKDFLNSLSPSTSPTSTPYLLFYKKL
The experiment in a line: Binding affinity to recombinant USP1 protein by differential scanning fluorimetry. As to conditions: read-out: ΔTm (°C). The protocol: <Experimental Example 1> Confirmation and evaluation of the binding affinity to recombinant USP1 protein
To evaluate the binding affinity of the compounds of the present invention to the USP1 protein, the following experiment was performed using differential scanning fluorimetry.
Recombinant 0.03 mg/mL USP1 (Δ1-66, Δ125-138, Δ229-408, Δ608-737) protein, dye reagent, and buffer solution (50 mM Tris-HCl pH 8.0, 150 mM NaCl, 2% glycerol, 1 mM DTT) were mixed and 19 µL of the mixture was dispensed into a well plate (MicroAmp Fast 96-Well Reaction plate, 0.1 mL). Each compound was injected at a final concentration of 100 µM in an amount of 1 µL, and the plate containing a total of 20 µL was sealed with MicroAmp Optical Adhesive Film. The melting temperature (Tm) of the protein in each well was measured using a real-time PCR (RT-PCR) device. The difference between the Tm of the sample containing the compound and the Tm containing DMSO is referred to as delta Tm (ΔTm), where a larger ΔTm value indicates stronger binding affinity. The degree of temperature at which the protein is modified in the presence of the compound compared to DMSO was calculated according to Equation 1 below: [formula]
(In general: In DSF a fluorescence change marks the thermal transition of the protein.)

The test system of assay [2] is UWB1.289 cells. The experiment in a line: Cell proliferation inhibitory activity in BRCA1/2-mutant or HRD-positive cells (Cell Titer-Glo). In kind it is cell-based. The following applies: read-out: GI50 UWB1.289 BRCA1 mut. The method, then: <Experimental Example 2> Evaluation of Cell Proliferation Inhibitory Activity in BRCA1/2-Mutant or HRD-Positive Cells
To evaluate the inhibitory activity of the compound according to the present invention on the proliferation of BRCA1/2 mutants or homologous recombination deficient (HRD) positive cell lines, the following experiments were performed. UWB1.289 cells were cultured in medium (50% MEBM + 50% RPMI1640), and 1,000 cells were seeded in a well plate (black clear bottom 96-well plate, Corning) 16 to 24 hours prior to compound treatment. The compounds were diluted in dimethyl sulfoxide (3-fold serial dilution starting at 10 µM, for a total of 10 concentrations) and injected at 1 µl per well, resulting a final concentration range of […] to 10 µM. Measurements of live cells were performed by a reaction in a 37 °C and CO2 incubator for 144 hours after compound treatment. The cells were incubated for 10 minutes in an incubator using Cell Titer-Glo luminescent cell-viability reagent (Promega), and luminescence intensity thereof was measured using a reader (SynergyNeo2, Biotek). GI50 values were calculated using the GraphPad Prism version 8.4.3 (GraphPad software Inc., San Diego) program.

Setting [3] is: compound 100 µM, 0.03 mg/mL USP1 (Δ1-66, Δ125-138, Δ229-408, Δ608-737), Tm with compound minus Tm with DMSO.
The mark [4] stands for this setting: UWB1289, UWB1.289 cells, 144 hours after compound treatment, Cell Titer-Glo, 1.5 nM to 10 µM.

The structures appear in SMILES notation. Read-outs that look alike come from different tables or passages of the source.

`COc1ncnc(C2CC2)c1-c1ncc2cc(C(=O)NCCN3CCOCC3)n(Cc3ccc(-c4nc(C(F)(F)F)cn4C(C)C)cc3)c2n1` [Example 6, 2-(4-cyclopropyl-6-methoxypyrimidin-5-yl)-7-(4-(1-isopropyl-4-(trifluoromethyl)-1H-imidazol-2-yl)benzyl)-N-(2-morpholinoethyl)-7H-pyrrolo[2,3-d]pyrimidine-6-carboxamide]: in assay [1] (setting [3]), the ΔTm – broadly, the change in melting temperature against a reference sample – at 100 µM is over 5 °C. Besides, in assay [2] (setting [4]), the GI50 – broadly, the concentration that inhibits growth by half – was under 100 nM.

As to `COc1ncnc(C2CC2)c1-c1ncc2cc(C(=O)NCC3(CO)CC3)n(Cc3ccc(-c4nc(C(F)(F)F)cn4C(C)C)cc3)c2n1` [Example 7, 2-(4-cyclopropyl-6-methoxypyrimidin-5-yl)-N-((1-(hydroxymethyl)cyclopropyl)methyl)-7-(4-(1-isopropyl-4-(trifluoromethyl)-1H-imidazol-2-yl)benzyl)-7H-pyrrolo[2,3-d]pyrimidine-6-carboxamide], in assay [1] (setting [3]), the ΔTm at 100 µM is over 5 °C. For the same molecule, the GI50 in assay [2] (setting [4]) is under 100 nM.

Regarding `[2H]C([2H])([2H])NC(=O)c1cc2cnc(-c3c(OC)ncnc3C3CC3)nc2n1Cc1ccc(-c2nc(C(F)(F)F)cn2C(C)C)cc1` [Example 9, 2-(4-cyclopropyl-6-methoxypyrimidin-5-yl)-7-(4-(1-isopropyl-4-(trifluoromethyl)-1H-imidazol-2-yl)benzyl)-N-(methyl-d3)-7H-pyrrolo[2,3-d]pyrimidine-6-carboxamide], the ΔTm at 100 µM in assay [1] (setting [3]) is over 5 °C. Further, the GI50 in assay [2] (setting [4]) lay within 100 to 500 nM.

On to `COc1ncnc(C2CC2)c1-c1ncc2cc(C(=O)NC3CC3(F)F)n(Cc3ccc(-c4nc(C(F)(F)F)cn4C(C)C)cc3)c2n1` (stereo not drawn) [Example 10, 2-(4-cyclopropyl-6-methoxypyrimidin-5-yl)-N-(2,2-difluorocyclopropyl)-7-(4-(1-isopropyl-4-(trifluoromethyl)-1H-imidazol-2-yl)benzyl)-7H-pyrrolo[2,3-d]pyrimidine-6-carboxamide], for which the thermal shift (ΔTm) at 100 µM in assay [1] (setting [3]) is over 5 °C. Moreover, in assay [2] (setting [4]), the GI50 is under 100 nM.

Take `COc1ncnc(C2CC2)c1-c1ncc2cc(C(=O)NC3CC3)n(Cc3ccc(-c4nc(C(F)(F)F)cn4C(C)C)cc3)c2n1` [Example 11, N-cyclopropyl-2-(4-cyclopropyl-6-methoxypyrimidin-5-yl)-7-(4-(1-isopropyl-4-(trifluoromethyl)-1H-imidazol-2-yl)benzyl)-7H-pyrrolo[2,3-d]pyrimidine-6-carboxamide]: in assay [1] (setting [3]), the ΔTm at 100 µM was over 5 °C. Also, the GI50 in assay [2] (setting [4]) was under 100 nM.

For the molecule `COc1ncnc(C2CC2)c1-c1ncc2cc(C(=O)NCCN(C)C)n(Cc3ccc(-c4nc(C(F)(F)F)cn4C(C)C)cc3)c2n1` [Example 12, 2-(4-cyclopropyl-6-methoxypyrimidin-5-yl)-N-(2-(dimethylamino)ethyl)-7-(4-(1-isopropyl-4-(trifluoromethyl)-1H-imidazol-2-yl)benzyl)-7H-pyrrolo[2,3-d]pyrimidine-6-carboxamide], in assay [1] (setting [3]), the ΔTm at 100 µM is over 5 °C. Also, the GI50 in assay [2] (setting [4]) was in the range of 100 to 500 nM.

Consider `COc1ncnc(C2CC2)c1-c1ncc2cc(C(=O)NC3COC3)n(Cc3ccc(-c4nc(C(F)(F)F)cn4C(C)C)cc3)c2n1` [Example 13, 2-(4-cyclopropyl-6-methoxypyrimidin-5-yl)-7-(4-(1-isopropyl-4-(trifluoromethyl)-1H-imidazol-2-yl)benzyl) -N-(oxetan-3-yl)-7H-pyrrolo[2,3-d]pyrimidine-6-carboxamide], for which, in assay [1] (setting [3]), the thermal shift (ΔTm) at 100 µM is over 5 °C. In assay [2] (setting [4]), the GI50 is under 100 nM.

As for `COc1ncnc(C2CC2)c1-c1ncc2cc(C(=O)N3CCC(N4CCOCC4)CC3)n(Cc3ccc(-c4nc(C(F)(F)F)cn4C(C)C)cc3)c2n1` [Example 14, (2-(4-cyclopropyl-6-methoxypyrimid in-5-yl)-7-(4-(1-isopropyl-4-(trifluoromethyl)-1H-imidazol-2-yl)benzyl)-7H-pyrrolo[2,3-d]pyrimidin-6-yl) (4-morpholinopipe ridin-1-yl)methanone], in assay [1] (setting [3]), the shift in melting temperature (ΔTm) at 100 µM was over 5 °C. In assay [2] (setting [4]), the 50% growth inhibitory concentration (GI50) is under 100 nM.

`COc1ncnc(C2CC2)c1-c1ncc2cc(C(=O)NC3CCC3)n(Cc3ccc(-c4nc(C(F)(F)F)cn4C(C)C)cc3)c2n1` [Example 15, N-cyclobutyl-2-(4-cyclopropyl-6-methoxypyrimidin-5-yl)-7-(4-(1-isopropyl-4-(trifluoromethyl)-1H-imidazol-2-yl)benzyl)-7H-pyrrolo[2,3-d]pyrimidine-6-carboxamide]: in assay [1] (setting [3]), the ΔTm at 100 µM was over 5 °C. The 50% growth inhibitory concentration (GI50) in assay [2] (setting [4]) is under 100 nM.

On to `COc1ncnc(C2CC2)c1-c1ncc2cc(C(=O)Nc3ccccc3)n(Cc3ccc(-c4nc(C(F)(F)F)cn4C(C)C)cc3)c2n1` [Example 17, 2-(4-cyclopropyl-6-methoxypyrimidin-5-yl)-7-(4-(1-isopropyl-4-(trifluoromethyl)-1H-imidazol-2-yl)benzyl)-N-phenyl-7H-pyrrolo[2,3-d]pyrimidine-6-carboxamide], for which, in assay [1] (setting [3]), the ΔTm at 100 µM was over 5 °C. The GI50 in assay [2] (setting [4]) is under 100 nM.

On to `COc1ncnc(C2CC2)c1-c1ncc2cc(C(=O)N3CCC3)n(Cc3ccc(-c4nc(C(F)(F)F)cn4C(C)C)cc3)c2n1` [Example 18, azetidin-1-yl(2-(4-cyclopropyl-6-methoxypyrimidin-5-yl)-7-(4-(1-isopropyl-4-(trifluoromethyl)-1H-imidazol-2-yl)benzyl)-7H-pyrrolo[2,3-d]pyrimidin-6-yl)methanone], for which the ΔTm at 100 µM in assay [1] (setting [3]) is over 5 °C. For the same molecule, in assay [2] (setting [4]), the GI50 is under 100 nM.

In the case of `COc1ncnc(C2CC2)c1-c1ncc2cc(C(=O)NCC3CCC3)n(Cc3ccc(-c4nc(C(F)(F)F)cn4C(C)C)cc3)c2n1` [Example 19, N-(cyclobutylmethyl)-2-(4-cyclopropyl-6-methoxypyrimidin-5-yl)-7-(4-(1-isopropyl-4-(trifluoromethyl)-1H-imidazol-2-yl)benzyl)-7H-pyrrolo[2,3-d]pyrimidine-6-carboxamide], in assay [1] (setting [3]), the ΔTm at 100 µM is over 5 °C. Moreover, the GI50 in assay [2] (setting [4]) was under 100 nM.

For `COc1ncnc(C2CC2)c1-c1ncc2cc(C(=O)NCC3(C)CC(F)(F)C3)n(Cc3ccc(-c4nc(C(F)(F)F)cn4C(C)C)cc3)c2n1` [Example 20, 2-(4-cyclopropyl-6-methoxypyrimidin-5-yl)-N-((3,3-difluoro-1-methylcyclobutyl)methyl)-7-(4-(1-isopropyl-4-(trifluoromethyl)-1H-imidazol-2-yl)benzyl)-7H-pyrrolo[2,3-d]pyrimidine-6-carboxamide], the ΔTm at 100 µM in assay [1] (setting [3]) is over 5 °C. Moreover, the GI50 in assay [2] (setting [4]) lay in the range of 100 to 500 nM.

For `COc1ncnc(C2CC2)c1-c1ncc2cc(C(=O)NCCF)n(Cc3ccc(-c4nc(C(F)(F)F)cn4C(C)C)cc3)c2n1` [Example 21, 2-(4-cyclopropyl-6-methoxypyrimidin-5-yl)-N-(2-fluoroethyl)-7-(4-(1-isopropyl-4-(trifluoromethyl)-1H-imidazol-2-yl)benzyl)-7H-pyrrolo[2,3-d]pyrimidine-6-carboxamide], the ΔTm at 100 µM in assay [1] was over 5 °C. Moreover, the GI50 in assay [2] (UWB1289, 144 h) is under 100 nM.

As for `COc1ncnc(C2CC2)c1-c1ncc2cc(C(=O)NCC#N)n(Cc3ccc(-c4nc(C(F)(F)F)cn4C(C)C)cc3)c2n1` [Example 22, N-(cyanomethyl) - 2-(4-cyclopropyl-6-methoxypyrimidin-5-yl)-7-(4-(1-isopropyl-4-(trifluoromethyl)-1H-imidazol-2-yl)benzyl)-7H-pyrrolo[2,3-d]pyrimidine-6-carboxamide], the ΔTm at 100 µM in assay [1] (setting [3]) is over 5 °C. In addition, the GI50 in assay [2] (setting [4]) is under 100 nM.

These data come from patent EP4806898A1, “HETEROARYL DERIVATIVE COMPOUND AND USE THEREOF” (Voronoi Inc., priority 2023, dated 2025).
